Test results reported in ChEMBL document CHEMBL1201862, “PubChem BioAssay data set” (2004).
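48-hour exposure; five concentrations; linearly interpolated endpoints. GI50: concentration for 50% inhibition of growth.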 Activity calls are given as the source filed them. No stated cut-off is given here; in the data, active = GI50 up to about 1.1 µM and inactive = higher.

Legend:
Experiment in all cases: NCI anticancer screen, dose series, 48 h
SF-539 = system: SF-539
SNB-78 = system: SNB-78
HCT-116 = system: HCT-116
HCC 2998 = system: HCC 2998
OVCAR-5 = system: OVCAR-5
LOX IMVI = system: LOX IMVI
K562 = system: K562
A549 = system: A549
UACC-257 = system: UACC-257
HL-60 = system: HL-60
SF-268 = system: SF-268
NCI-H23 = system: NCI-H23
TK-10 = system: TK-10
SW-620 = system: SW-620
COLO 205 = system: COLO 205
NCI-H522 = system: NCI-H522
BT-549 = system: BT-549
NCI/ADR-RES = system: NCI/ADR-RES
Hs-578T = system: Hs-578T
PC-3 = system: PC-3

Structure (SMILES)	GI50 (SF-539)	GI50 (SNB-78)	GI50 (HCT-116)	GI50 (HCC 2998)	GI50 (OVCAR-5)	GI50 (LOX IMVI)	GI50 (K562)	GI50 (A549)	GI50 (UACC-257)	GI50 (HL-60)	GI50 (SF-268)	GI50 (NCI-H23)	GI50 (TK-10)	GI50 (SW-620)	GI50 (COLO 205)	GI50 (NCI-H522)	GI50 (BT-549)	GI50 (NCI/ADR-RES)	GI50 (Hs-578T)	GI50 (PC-3)
O=C(O)C1=C(C(=O)Nc2ccccc2)C2C=CC1C2 (stereo unspecified)	> 100 µM (inactive)	> 100 µM (inactive)	> 100 µM (inactive)	> 100 µM (inactive)	> 100 µM (inactive)	> 100 µM (inactive)	> 100 µM (inactive)	> 100 µM (inactive)	> 100 µM (inactive)	> 100 µM (inactive)	> 100 µM (inactive)	> 100 µM (inactive)	> 100 µM (inactive)	> 100 µM (inactive)	> 100 µM (inactive)					
OC1(c2ccccc2)OC(C#Cc2ccccc2)(c2ccccc2)c2ccccc21 (stereo unspecified)	1.97 µM (inactive)	6.98 µM (inactive)	1.7 µM (inactive)		2.79 µM (inactive)	2.91 µM (inactive)	3.55 µM (inactive)	3.86 µM (inactive)	8.32 µM (inactive)	2.58 µM (inactive)	4.18 µM (inactive)	3.47 µM (inactive)	13.3 µM (inactive)	4.12 µM (inactive)	2.31 µM (inactive)	7.48 µM (inactive)				
Cc1ccc(NC(=O)c2nc(S)nc(N)c2-c2ccccc2C)cc1C	> 100 µM (inactive)	> 100 µM (inactive)	> 100 µM (inactive)		> 100 µM (inactive)	> 100 µM (inactive)	> 100 µM (inactive)	> 100 µM (inactive)	> 100 µM (inactive)		> 100 µM (inactive)	> 100 µM (inactive)	> 100 µM (inactive)	> 100 µM (inactive)	> 100 µM (inactive)	> 100 µM (inactive)				
N#CC1([N+](=O)[O-])C=C1c1ccccc1 (stereo unspecified)	> 100 µM (inactive)	81.5 µM (inactive)	32.4 µM (inactive)		> 100 µM (inactive)	28.6 µM (inactive)	23.2 µM (inactive)	> 100 µM (inactive)	78 µM (inactive)	23.3 µM (inactive)	53.7 µM (inactive)	> 100 µM (inactive)	> 100 µM (inactive)	19.9 µM (inactive)	> 100 µM (inactive)	23.4 µM (inactive)				
CC(C)(C)c1cc(CCC(=O)Nc2ccc(Cl)cc2Cl)nc(N)n1	> 100 µM (inactive)	> 100 µM (inactive)	> 100 µM (inactive)	> 100 µM (inactive)	> 100 µM (inactive)	> 100 µM (inactive)	> 100 µM (inactive)	> 100 µM (inactive)	> 100 µM (inactive)	> 100 µM (inactive)	> 100 µM (inactive)	> 100 µM (inactive)		> 100 µM (inactive)	> 100 µM (inactive)					
O=C1CNS(=O)(=O)N1	> 100 µM (inactive)	> 100 µM (inactive)	> 100 µM (inactive)	> 100 µM (inactive)			> 100 µM (inactive)	> 100 µM (inactive)	> 100 µM (inactive)	> 100 µM (inactive)	> 100 µM (inactive)	> 100 µM (inactive)	> 100 µM (inactive)	> 100 µM (inactive)	> 100 µM (inactive)	> 100 µM (inactive)				
CC(C)Oc1cccc(N2C(CCc3c[nH]c4ccc(Br)cc34)=NS(=O)(=O)c3cnccc32)c1	75.7 µM (inactive)		20.3 µM (inactive)	60.4 µM (inactive)	29.1 µM (inactive)	59.7 µM (inactive)	27 µM (inactive)	29.2 µM (inactive)	50.8 µM (inactive)	23.3 µM (inactive)	69.8 µM (inactive)	61.9 µM (inactive)	53.8 µM (inactive)	72.3 µM (inactive)	17.9 µM (inactive)	27.9 µM (inactive)	57.4 µM (inactive)	44 µM (inactive)	64.6 µM (inactive)	24.7 µM (inactive)
Cc1ccc(NC(=O)CC2SC(Nc3cccc(Cl)c3C)=NC2=O)cc1 (stereo unspecified)	53.1 µM (inactive)	60.7 µM (inactive)		99.8 µM (inactive)	> 100 µM (inactive)	> 100 µM (inactive)	34.6 µM (inactive)	51.1 µM (inactive)	48 µM (inactive)		37 µM (inactive)	28.6 µM (inactive)	92 µM (inactive)	68.5 µM (inactive)	64.7 µM (inactive)					
O=C1CC(c2ccc([N+](=O)[O-])cc2)C2(C(=O)NC(=S)NC2=O)C(c2ccc([N+](=O)[O-])cc2)C1 (stereo unspecified)	33.7 µM (inactive)		16.7 µM (inactive)	24.4 µM (inactive)	35.5 µM (inactive)	19 µM (inactive)	62.5 µM (inactive)	19.6 µM (inactive)	18.1 µM (inactive)	51.6 µM (inactive)	21.4 µM (inactive)	22.1 µM (inactive)	16.3 µM (inactive)	29.7 µM (inactive)	33.5 µM (inactive)	18.9 µM (inactive)	17 µM (inactive)	31.6 µM (inactive)	25.8 µM (inactive)	30.5 µM (inactive)
CC1CCCC(C(=O)/C(=C/c2cccc(Cl)c2)C(=O)C(=O)O)C1 (stereo unspecified)	27.5 µM (inactive)	55.2 µM (inactive)	13.8 µM (inactive)	12.8 µM (inactive)	> 100 µM (inactive)		19.5 µM (inactive)	60.7 µM (inactive)	59.8 µM (inactive)	20 µM (inactive)	42.1 µM (inactive)	39.5 µM (inactive)	> 100 µM (inactive)	14.5 µM (inactive)	37.3 µM (inactive)	0.0161 µM (active)				
Cc1nc(=O)n2c(C)n[nH]c2c1C(=O)Nc1cc(Cl)cc(Cl)c1	21.8 µM (inactive)	32.4 µM (inactive)	27.5 µM (inactive)		65.3 µM (inactive)	36.2 µM (inactive)	23.8 µM (inactive)	19.2 µM (inactive)		20.1 µM (inactive)	33.3 µM (inactive)	24.6 µM (inactive)	19.8 µM (inactive)	41.5 µM (inactive)	26.7 µM (inactive)	6.01 µM (inactive)				
CC1CCC2C(C(=O)O[C@H]3C4C=CO[C@@H](OC5OC(CO)C(O)C(O)C5O)C4[C@@]4(CO)O[C@@H]34)=CO[C@@H](OC3OC(CO)C(O)C(O)C3O)C12 (stereo partly specified)	> 10 µM (inactive)		> 10 µM (inactive)	> 10 µM (inactive)	> 10 µM (inactive)	> 10 µM (inactive)	> 10 µM (inactive)	> 10 µM (inactive)	> 10 µM (inactive)	> 10 µM (inactive)	> 10 µM (inactive)	> 10 µM (inactive)	> 10 µM (inactive)	> 10 µM (inactive)	> 10 µM (inactive)	> 10 µM (inactive)	> 10 µM (inactive)	> 10 µM (inactive)	> 10 µM (inactive)	> 10 µM (inactive)
CC(O)(c1ccc(OCCC[N+](C)(C)C)cc1)C(C)(O)c1ccc(OCCC[N+](C)(C)C)cc1 (stereo unspecified)	> 100 µM (inactive)	> 100 µM (inactive)	> 100 µM (inactive)	> 100 µM (inactive)	> 100 µM (inactive)	> 100 µM (inactive)	> 100 µM (inactive)	> 100 µM (inactive)	> 100 µM (inactive)	> 100 µM (inactive)	> 100 µM (inactive)	> 100 µM (inactive)		> 100 µM (inactive)	> 100 µM (inactive)	> 100 µM (inactive)				
